{
  "source": "paper PMC6222871",
  "about": "“Suppression of Hepatitis C Virus Genome Replication and Particle Production by a Novel Diacylglycerol Acyltransferases Inhibitor” (Molecules : A Journal of Synthetic Chemistry and Natural …, 2018)",
  "key": {"[1]": {"test_system": "HCV genotype 2a (Huh7.5-J6/JFH1)", "test": "microbe, parasite or virus in culture", "conditions": "Hepatitis C virus, read-out: EC50 on HCV genome replication", "description": "We previously synthesized and characterized twelve DGAT inhibitors with a different DGAT specificity. […] A922500, a commercially available DGAT-1-specific inhibitor was used as a positive control. In spite of a wealth of knowledge on an essential role of DGAT-1 in the HCV particle assembly and production, less attention has been paid to potential functions of DGATs in other steps of the viral life cycle. Therefore, we decided to examine effects of these twelve DGAT inhibitors on HCV particle production as well as RNA genome replication in parallel. For this purpose, we transfected Huh7.5 cells with in vitro-transcribed genotype 2a HCV RNAs (Huh7.5-J6/JFH1) and treated them with each DGAT inhibitor for 6 and 72 h at 10 μM. HCV genome replication as well as host GAPDH RNA levels was quantitated by a real-time RT-PCR analysis. For assessment of HCV particle production, we harvested and filtered the supernatant from Huh7.5-J6/JFH1 cells treated with DGAT inhibitors and incubated the supernatant with naïve huh7.5 cells for 72 h. Then, infectivity was measured by a real-time RT-PCR analysis.\nQuantitative real-time RT-PCR analysis to measure levels of HCV RNA and GAPDH was conducted as previously described. The cDNA synthesis and reverse transcription of miR-122 were performed by using Taqman quantitative RT-PCR (qRT-PCR) analysis. Taqmanq RT-PCR components including TaqMan miR122 probe, endogenous control U6 probe, TaqMan® MicroRNA reverse transcription Kit and TaqMan® universal master mix II were purchased from Thermo Fisher Scientific (Waltham, MA, USA)\nHuh7.5-J6/JFH-1 cells were seeded into 6-well plates at a density of 3 × 10^5 cells per well with DMEM containing 10% FBS. After 24 h, they are incubated with either DMSO, increasing concentrations of 10j for 3, 6, 12, 24, 48, and 72 h, or increasing concentrations of A922500 for 6, 12, 24, 48, and 72 h. Total RNAs were extracted from treated cells and virus-containing media were harvested at each time point. Naïve Huh7.5 cells were infected with these virus-containing media after concentration with centricons. Total RNAs were extracted from Huh7.5 cells infected with virus-containing media. qRT-PCR analysis was performed to measure effect of 10j on HCV replication and virus particle production."}, "[2]": {"test_system": "HCV genotype 2a (Huh7.5-J6/JFH1)", "test": "HCV particle production: infectivity of supernatant on naive Huh7.5 cells by real-time RT-PCR", "assay_type": "cell-based, hepatitis C virus", "conditions": "Hepatitis C virus, read-out: EC50 on HCV particle production", "quoted_text": "A922500, a commercially available DGAT-1-specific inhibitor was used as a positive control [10]. […] Therefore, we decided to examine effects of these twelve DGAT inhibitors on HCV particle production as well as RNA genome replication in parallel. For this purpose, we transfected Huh7.5 cells with in vitro-transcribed genotype 2a HCV RNAs (Huh7.5-J6/JFH1) [16] and treated them with each DGAT inhibitor for 6 and 72 h at 10 μM. HCV genome replication as well as host GAPDH RNA levels was quantitated by a real-time RT-PCR analysis. For assessment of HCV particle production, we harvested and filtered the supernatant from Huh7.5-J6/JFH1 cells treated with DGAT inhibitors and incubated the supernatant with naïve huh7.5 cells for 72 h. Then, infectivity was measured by a real-time RT-PCR analysis.\nHuh7.5-J6/JFH-1 cells were seeded into 6-well plates at a density of 3 × 10^5 cells per well with DMEM containing 10% FBS. […] Total RNAs were extracted from treated cells and virus-containing media were harvested at each time point. Naïve Huh7.5 cells were infected with these virus-containing media after concentration with centricons."}, "[3]": {"test_system": "luciferase-linked genotype 2a HCV RNAs", "test": "microbe, parasite or virus in culture", "assay_type": "cell-based, hepatitis C virus", "conditions": "Hepatitis C virus, Huh7.5, luciferase-linked genotype 2a HCV RNA in Huh7.5 cells; read-out: EC50 (HCV replication)", "protocol": "(§1) To order to study impacts of DGAT inhibitors on HCV genome replication independently of the particle production, we decided to examine effects of these twelve DGAT inhibitors on the levels of viral RNA genome and cell viability in parallel. […] Then, we treated them with an increasing concentration of each DGAT inhibitor. Then, luciferase and MTT-based cell viability assays were performed to determine EC50 and CC50 (cytotoxic concentration required to kill 50% of treated cells) values, respectively.\n(§2) Cell viability was measured with EZ-CYTOX (10% tetrazolium salt; Dogen, Gyeonggi-do, Korea) as described previously. Anti-HCV replication analysis using a luciferase assay was conducted as previously described."}, "[4]": {"test": "MTT-based cell viability assay (EZ-CYTOX)", "conditions": "human", "protocol": "as §1, §2"}, "Huh7.5 cells [5]": {"test_system": "Huh7.5 cells", "test": "TG quantification assay in Huh7.5 cells", "assay_type": "cell-based", "conditions": "20 μM", "protocol": "Cells were washed with cold PBS, suspended, and homogenized in 1 mL of 5% NP-40/ddH2O solution. Then, homogenized cells were slowly heated to 90 °C for 5 min or until the NP-40 becomes cloudy, then cooled down to room temperature. Previous step was repeated to solubilize all TG. Cells were centrifuged for 2 min at top speed using a microcentrifuge to remove any insoluble material. Samples were diluted 10-fold with ddH2O before proceeding with the assay. […] Samples were added with 50 μL of reaction mix into each well and incubated at room temperature for 60 min while protected from light. Fluorescence was measured by using a fluorometric reader with Ex/Em = 535/590 nm. The amount of TG from standard sample was calculated using the following equation: Ts=Corrected absorbance−(y−intercept)/slope The amount of intracellular TG was calculated using the following equation: Concentration=Ts/Sv*D where the Ts is the amount of TG from standard curve and Sv is the volume of sample added to sample wells and D is the sample dilution factor."}, "Huh7.5 cells [6]": {"test_system": "Huh7.5 cells", "test": "visualization of intracellular LD by BODIPY in Huh7.5 cells", "assay_type": "cell-based", "conditions": "20 μM, 72 h", "protocol": "Huh7.5 cells were incubated in a 24-well plate on top of coverslip in the presence of either DMSO, 8 μM of 10j, or 20 μM of A922500 for 72 h. Then, Huh7.5 cells were fixed by using 4% paraformaldehyde for 15 min and stained with 0.001% BODIPY 493/503 D3922 (Invitrogen, Carlsbad, CA, USA) for 10 min. The coverslips were mounted onto slides using Prolong Gold anti-fade reagent with DAPI (Invitrogen, Carlsbad, CA, USA) Fluorescence were examined and captured by Nikon confocal laser scanning microscopic system. LD content was quantified using the ImageJ program."}, "JFH1-NS5A-GFP cells": {"test_system": "JFH1-NS5A-GFP cells", "test": "NS5A-GFP and Oil Red O imaging in JFH1-NS5A-GFP cells", "assay_type": "cell-based, hepatitis C virus", "protocol": "Based on previous results, we noticed that EC50 values required for inhibition of the HCV genome replication by 10j were around 1–2 μM ranges (Figure 2 and Table 3). However, IC50 value required for inhibition of the enzymatic DGAT activities in vitro by 10j was reported to be higher than 5 μM (Table 2 and Figure 6E). Based on these observations, we hypothesized that inhibition of DGATs by 10j may not play a direct role in suppression of the viral genome replication. To test this hypothesis, we decided to study effects of 10j on DGAT and the viral genome replication in a simultaneous manner. […] Then, the viral NS3 protein and LDs were visualized by using an anti-NS3 antibody and BODIPY, respectively. […] Significant reduction of LD was only seen after treatment of 10j higher than 5 μM. In order to confirm this observation, we decided to utilize another HCV-positive cell—JFH1-NS5A-GFP cells—which were infected with infectious HCV genotype 2a particles with a visually tractable NS5A due to the presence of in-frame-fused GFP protein with NS5A. TGs of these cells were stained with ORO for visualization in parallel. […]\nImmunofluorescence analysis of Huh7.5-J6/JFH1 or Huh7.5-JFH1-5A-GFP cells in the presence of 10j was conducted as previously described. Fluorescence were examined and captured by Nikon confocal laser scanning microscopic system. LD content was quantified using the ImageJ program."}, "recombinant DGAT-1": {"test_system": "recombinant DGAT-1", "design": "method as in PMID 23242135", "conditions": "recombinant DGAT-1, [14C] oleoyl-CoA as acyl-donor; cited from earlier work"}, "HCV": {"test_system": "HCV", "design": "method as in PMID 27788579", "conditions": "read-out: EC50 in vitro; cited from earlier work"}},
  "data": [
    {"smiles": "O=C(Nc1ccccc1)Nc1ccc(-c2ccc(C(=O)[C@@H]3CCC[C@H]3C(=O)O)cc2)cc1", "note": "[A922500, reference compound]", "values": [
      {"measurement": "EC50", "setting": "[1]; 6 h", "value": "> 100", "unit": "µM"},
      {"measurement": "EC50", "setting": "[1]; 12 h", "value": "> 100", "unit": "µM"},
      {"measurement": "EC50", "setting": "[1]; 24 h", "value": "> 100", "unit": "µM"},
      {"measurement": "EC50", "setting": "[1]; 48 h", "value": "> 100", "unit": "µM"},
      {"measurement": "EC50", "setting": "[1]; 72 h", "value": "> 100", "unit": "µM"},
      {"measurement": "EC50", "setting": "[2]; Huh7.5, 6 h", "value": 34.3, "unit": "µM"},
      {"measurement": "EC50", "setting": "[2]; Huh7.5, 12 h", "value": 76.6, "unit": "µM"},
      {"measurement": "EC50", "setting": "[2]; Huh7.5, 24 h", "value": 68.6, "unit": "µM"},
      {"measurement": "EC50", "setting": "[2]; Huh7.5, 48 h", "value": 42.2, "unit": "µM"},
      {"measurement": "EC50", "setting": "[2]; Huh7.5, 72 h", "value": 22, "unit": "µM"},
      {"measurement": "EC50", "setting": "[3]", "value": 50.8, "unit": "µM"},
      {"measurement": "CC50", "setting": "[4]", "value": 71.9, "unit": "µM"},
      {"measurement": "suppression of endogenous level of TG", "setting": "Huh7.5 cells [5]", "value": 25, "unit": "%"},
      {"measurement": "increase in the level of LDs (BODIPY)", "setting": "Huh7.5 cells [6]", "value": 45, "unit": "%"},
      {"measurement": "abundance of GFP-tagged NS5A proteins or ORO-stained LDs", "setting": "JFH1-NS5A-GFP cells", "value": "failed to induce any significant changes"},
      {"measurement": "IC50", "setting": "recombinant DGAT-1", "value": 0.007, "unit": "µM"}
    ]},
    {"smiles": "O=C(O)C[C@H]1CC[C@H](c2ccc(-c3ccc(Nc4ccc(C(F)(F)F)nc4)cn3)cc2)CC1", "note": "[pradigastat]", "values": [
      {"measurement": "EC50", "setting": "HCV", "value": 30, "unit": "µM"}
    ]}
  ]
}
